Reference: publication PMC9596378, “Discovery and molecular basis of subtype-selective cyclophilin inhibitors” (Nature Chemical Biology, 2022)

Experiments:
CypB = target: T1, CypB (Homo sapiens, UniProt P23284); experiment: biochemical; settings: wild-type CypB; read-out: Wild-Type Cyclophilin Prolyl Isomerase Inhibition IC50 Values, CypB
T1 construct: PPIB (UniProtKB Entry P23284: residues 34–216); His6 with TEV site (2BT vector leader) (N); made in house; host or cells: E. coli BL21(DE3)
Procedure: (§1) Adapting a previously described protocol, with an Agilent Bravo Velocity 11 with a 384ST head, 90 µL assay buffer (25 mM HEPES pH 7.3, 100 mM NaCl, 0.01% Triton X-100) containing 5.28 nM cyclophilin was added into a flat, clear-bottom, black 384-well plate pre-chilled in a Corning CoolBox at 2–3 °C. Five microliters of compound pre-dissolved in 5% DMSO/assay buffer was then added to appropriate wells and incubated at 2–3 °C for 5 min. Five microliters of 0.5 mM α-chymotrypsin from bovine pancreas (Type II, lyophilized powder, Millipore-Sigma) in 20% 1 mM HCl/Assay Buffer was then added to each well and incubated at 2–3 °C for 5 min. The plate was then quickly transferred to a FLIPR Tetra High-Throughput Cellular Screening System (Molecular Devices). Using the internal liquid handling system of the FLIPR, 1 µL 0.5 mM Suc-AAPF-AMC (Chymotrypsin Substrate II, Millipore-Sigma) dissolved in 0.55 M LiCl/2,2,2-trifluoroethanol was added to each well, which was then mixed for 5 s, followed by immediate fluorescence measurements every 1 s for 330 s using a 360–380 nm excitation LED module and a 400–460 nm emission filter. Final concentrations of the plate include 5 nM cyclophilin, 0.25% DMSO, 25 µM α-chymotrypsin, 5 µM Suc-AAPF-AMC. Raw fluorescence data was analyzed by non-linear regression analysis with Prism v.9 by fitting one-phase association curves to each well. […] Rate constants calculated for each well (s^−1) were then normalized to substrate only (no prolyl-isomerase) and enzyme + substrate only controls. IC50 values were calculated as the value at which 50% inhibition was achieved on the non-linear regression fitted curve of each compound.

CypE = target: T2, CypE (Homo sapiens, UniProt Q9UNP9); experiment: Chymotrypsin coupled prolyl-isomerase assay; format: biochemical; settings: wild-type CypE; read-out: Wild-Type Cyclophilin Prolyl Isomerase Inhibition IC50 Values, CypE
T2 construct: PPIE (UniProtKB Entry Q9UNP9: residues 131–301); host or cells: E. coli BL21(DE3)
T2 sequence (Q9UNP9 131-301): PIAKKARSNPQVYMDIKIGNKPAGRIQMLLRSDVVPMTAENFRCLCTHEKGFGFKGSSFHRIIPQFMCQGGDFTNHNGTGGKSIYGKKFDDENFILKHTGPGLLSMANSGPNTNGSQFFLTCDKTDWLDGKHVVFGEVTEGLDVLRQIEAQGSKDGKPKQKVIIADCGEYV
Procedure: as §1

CypC = target: T3, CypC (Homo sapiens, UniProt P45877); experiment: Chymotrypsin coupled prolyl-isomerase assay; format: biochemical; settings: wild-type CypC; read-out: Wild-Type Cyclophilin Prolyl Isomerase Inhibition IC50 Values, CypC
T3 construct: PPIC (UniProtKB Entry P45877: residues 24–212); host or cells: E. coli BL21(DE3)
T3 sequence (P45877 24-212): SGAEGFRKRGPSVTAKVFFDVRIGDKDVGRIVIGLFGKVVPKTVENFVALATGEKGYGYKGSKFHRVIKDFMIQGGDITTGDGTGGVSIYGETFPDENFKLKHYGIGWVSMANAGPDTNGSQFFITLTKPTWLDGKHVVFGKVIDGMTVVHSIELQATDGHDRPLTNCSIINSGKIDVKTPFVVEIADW
Procedure: as §1

CypG = target: T4, CypG (Homo sapiens, UniProt Q13427); experiment: Chymotrypsin coupled prolyl-isomerase assay; format: biochemical; settings: wild-type CypG; read-out: Wild-Type Cyclophilin Prolyl Isomerase Inhibition IC50 Values, CypG
T4 construct: PPIG (UniProtKB Entry Q13427: residues 1–179); His6 with thrombin site (pET28a LIC leader) (N); host or cells: E. coli BL21(DE3)
T4 sequence (Q13427 1-179): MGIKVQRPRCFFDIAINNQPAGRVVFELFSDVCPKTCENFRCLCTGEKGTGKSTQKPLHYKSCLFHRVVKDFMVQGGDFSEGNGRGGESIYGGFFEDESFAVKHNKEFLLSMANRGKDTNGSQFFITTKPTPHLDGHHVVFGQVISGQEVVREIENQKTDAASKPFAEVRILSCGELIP
Procedure: as §1

CypH = target: T5, CypH (Homo sapiens, UniProt O43447); experiment: Chymotrypsin coupled prolyl-isomerase assay; format: biochemical; settings: wild-type CypH; read-out: Wild-Type Cyclophilin Prolyl Isomerase Inhibition IC50 Values, CypH
T5 construct: PPIH (UniProtKB Entry O43447: residues 1–177); His6 with TEV site (2BT vector leader) (N); made in house; host or cells: E. coli BL21(DE3)
T5 sequence (O43447 whole entry, the tested form may be a part): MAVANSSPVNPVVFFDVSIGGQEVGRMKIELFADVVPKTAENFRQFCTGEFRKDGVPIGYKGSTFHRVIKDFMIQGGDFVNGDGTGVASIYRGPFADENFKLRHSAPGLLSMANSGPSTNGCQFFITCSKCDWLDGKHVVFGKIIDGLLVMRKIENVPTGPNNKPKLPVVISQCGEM
Procedure: as §1

CypA = target: T6, CypA (Homo sapiens, UniProt P62937); experiment: Chymotrypsin coupled prolyl-isomerase assay; format: biochemical; settings: wild-type CypA; read-out: Wild-Type Cyclophilin Prolyl Isomerase Inhibition IC50 Values, CypA
T6 construct: PPIA (UniProtKB Entry P62937: residues 1–165); made in house; host or cells: E. coli BL21(DE3)
T6 sequence (P62937 whole entry, the tested form may be a part): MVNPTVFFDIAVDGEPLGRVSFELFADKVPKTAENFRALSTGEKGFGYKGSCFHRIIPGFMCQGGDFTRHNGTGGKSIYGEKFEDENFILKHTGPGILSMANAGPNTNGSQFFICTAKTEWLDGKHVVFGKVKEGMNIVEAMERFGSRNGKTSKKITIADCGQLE
Procedure: as §1

PPIL1 = target: T7, PPIL1 (Homo sapiens, UniProt Q9Y3C6); experiment: Chymotrypsin coupled prolyl-isomerase assay; format: biochemical; settings: wild-type PPIL1; read-out: Wild-Type Cyclophilin Prolyl Isomerase Inhibition IC50 Values, PPIL1
T7 construct: PPIL1 (UniProtKB Entry Q9Y3C6: residues 1–166); made in house; host or cells: E. coli BL21(DE3)
T7 sequence (Q9Y3C6 1-166): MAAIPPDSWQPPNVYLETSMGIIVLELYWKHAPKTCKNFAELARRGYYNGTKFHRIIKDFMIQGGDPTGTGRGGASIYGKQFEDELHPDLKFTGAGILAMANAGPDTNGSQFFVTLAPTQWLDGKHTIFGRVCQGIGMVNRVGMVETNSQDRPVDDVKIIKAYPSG

Measured: IC50

T1 sequence (P23284 34-216): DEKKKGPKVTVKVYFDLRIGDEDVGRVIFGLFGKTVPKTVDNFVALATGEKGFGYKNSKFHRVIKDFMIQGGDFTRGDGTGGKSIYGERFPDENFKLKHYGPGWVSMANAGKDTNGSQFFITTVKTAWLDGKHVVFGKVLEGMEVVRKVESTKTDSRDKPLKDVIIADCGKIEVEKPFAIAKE

C[N+]1=C(C=CC=CC=C2N(CCCCCC(=O)NCCNC(=O)C3CCNC(=O)C=CC(=O)N4CCCC(Cc5ccccc5)(C4)C(=O)NC(Cc4ccc(-c5ccc(CC(C(=O)O)C(=O)O)cc5)cc4)C(=O)NCc4ccccc4CC(=O)N3)c3ccccc3C2(C)C)C(C)(C)c2ccccc21 (centres unmarked) [*B52-Cy5]
> 10 µM: CypB | CypE | CypC | CypG | CypH | CypA | PPIL1

C[N+]1=C(C=CC=CC=C2N(CCCCCC(=O)NCCNC(=O)C3CCNC(=O)C=CC(=O)N4CCCC(Cc5ccccc5)(C4)C(=O)NC(Cc4ccc(-c5ccc(C(CC(=O)O)CC(=O)O)cc5)cc4)C(=O)NCc4ccccc4CC(=O)N3)c3ccccc3C2(C)C)C(C)(C)c2ccccc21 (centres unmarked) [*B53-Cy5]
> 10 µM: CypB | CypE | CypC | CypG | CypH | CypA | PPIL1
